According to PubChem BioAssay AID1845215 (Molecular Pharmacology Branch, DTP, NCI, 2023):

Tested on: SW 1271 complex tumor spheroid viability
Assay: Anticancer human tumor SW 1271 cell line growth inhibition;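 further: spheroids exposed to agents for seven days before readout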;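 on viability, T/C: percent of DMSO vehicle control luminescence so 100% = vehicle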
Settings: for IC50: curve of first compound; for viability, T/C: stronger effect = lower value
How it was run: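 Single agents and combinations were tested on spheroids built from tumor cells plus HUVEC and hMSC, at half-log dilutions starting at or near clinical Cmax, else 10 microM; final DMSO 0.25% (v/v).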

[1] = second compound 0.003 µM, first compound 0.0316 µM
[2] = second compound 0.003 µM, first compound 0.1 µM
[3] = second compound 0.003 µM, first compound 0.316 µM
[4] = second compound 0.003 µM, first compound 1 µM
[5] = second compound 0.003 µM, first compound 3.16 µM
[6] = second compound 0.003 µM, first compound 10 µM
[7] = second compound 0.00949 µM, first compound 0.0316 µM
[8] = second compound 0.00949 µM, first compound 0.1 µM
[9] = second compound 0.00949 µM, first compound 0.316 µM
[10] = second compound 0.00949 µM, first compound 1 µM
[11] = second compound 0.00949 µM, first compound 3.16 µM
[12] = second compound 0.00949 µM, first compound 10 µM
[13] = second compound 0.03 µM, first compound 0.0316 µM
[14] = second compound 0.03 µM, first compound 0.1 µM
[15] = second compound 0.03 µM, first compound 0.316 µM
[16] = second compound 0.03 µM, first compound 1 µM
[17] = second compound 0.03 µM, first compound 3.16 µM
[18] = second compound 0.03 µM, first compound 10 µM
[19] = second compound 0.0949 µM, first compound 0.0316 µM
[20] = second compound 0.0949 µM, first compound 0.1 µM
[21] = second compound 0.0949 µM, first compound 0.316 µM
[22] = second compound 0.0949 µM, first compound 1 µM
[23] = second compound 0.0949 µM, first compound 3.16 µM
[24] = second compound 0.0949 µM, first compound 10 µM
[25] = second compound 0.3 µM, first compound 0.0316 µM
[26] = second compound 0.3 µM, first compound 0.1 µM
[27] = second compound 0.3 µM, first compound 0.316 µM
[28] = second compound 0.3 µM, first compound 1 µM
[29] = second compound 0.3 µM, first compound 3.16 µM
[30] = second compound 0.3 µM, first compound 10 µM

Row | Structure (SMILES) | IC50 (second compound 0.003 µM) | IC50 (second compound 0.00949 µM) | IC50 (second compound 0.03 µM) | IC50 (second compound 0.0949 µM) | IC50 (second compound 0.3 µM) | viability, T/C [1] | viability, T/C [2] | viability, T/C [3] | viability, T/C [4] | viability, T/C [5] | viability, T/C [6] | viability, T/C [7] | viability, T/C [8] | viability, T/C [9] | viability, T/C [10] | viability, T/C [11] | viability, T/C [12] | viability, T/C [13] | viability, T/C [14] | viability, T/C [15] | other results
1 | CC(C)n1c(=O)n(C)c2cnc3cc(F)c(-c4ccc(OCCCN5CCCCC5)nc4)cc3c21 + CC[C@@]1(O)C(=O)OCc2c1cc1n(c2=O)Cc2cc3c(CN(C)C)c(O)ccc3nc2-1 | < 31.6 nM | < 31.6 nM | < 31.6 nM | < 31.6 nM | < 31.6 nM | 28.2% | 26.8% | 25% | 27.7% | 19.3% | 7.91% | 15.9% | 17.9% | 14.5% | 12.2% | 11.3% | 5.27% | 20.4% | 17.7% | 16% | viability, T/C [16]: 15.8%; viability, T/C [17]: 8.12%; viability, T/C [18]: 3.67%; viability, T/C [19]: 23.9%; viability, T/C [20]: 24.6%; viability, T/C [21]: 23.2%; viability, T/C [22]: 19.8%; viability, T/C [23]: 7.87%; viability, T/C [24]: 3.44%; viability, T/C [25]: 14.6%; viability, T/C [26]: 13.2%; viability, T/C [27]: 16.4%; viability, T/C [28]: 16.1%; viability, T/C [29]: 7.25%; viability, T/C [30]: 4.47%
2 | COc1ccc([C@@H](O)c2cc(-c3ncnc4cc(N5CCOCC5)ccc34)c(F)cc2Cl)nn1 + CC[C@@]1(O)C(=O)OCc2c1cc1n(c2=O)Cc2cc3c(CN(C)C)c(O)ccc3nc2-1 | 1230 nM | 103 nM | < 31.6 nM | < 31.6 nM | < 31.6 nM | 83.3% | 85.1% | 75.2% | 54.3% | 26.9% | 6.38% | 57.9% | 53% | 37.9% | 29.6% | 19.6% | 6.43% | 31.5% | 31.1% | 28.8% | viability, T/C [16]: 28.6%; viability, T/C [17]: 19.9%; viability, T/C [18]: 6.27%; viability, T/C [19]: 27.9%; viability, T/C [20]: 27.6%; viability, T/C [21]: 25%; viability, T/C [22]: 25.9%; viability, T/C [23]: 21.7%; viability, T/C [24]: 3.71%; viability, T/C [25]: 13%; viability, T/C [26]: 14.8%; viability, T/C [27]: 15%; viability, T/C [28]: 10.2%; viability, T/C [29]: 1.72%; viability, T/C [30]: 0.2%
